pKi: −log10 of the molar value.
Tests used:
Carbonic anhydrase 9 = Carbonic anhydrase 9 (Homo sapiens, UniProt Q16790); assay: Inhibition of human carbonic anhydrase-9
Carbonic anhydrase 1 = Carbonic anhydrase 1 (Homo sapiens, UniProt P00915); assay: Inhibition of human carbonic anhydrase-1
Sequence of Carbonic anhydrase 1 (P00915 whole entry): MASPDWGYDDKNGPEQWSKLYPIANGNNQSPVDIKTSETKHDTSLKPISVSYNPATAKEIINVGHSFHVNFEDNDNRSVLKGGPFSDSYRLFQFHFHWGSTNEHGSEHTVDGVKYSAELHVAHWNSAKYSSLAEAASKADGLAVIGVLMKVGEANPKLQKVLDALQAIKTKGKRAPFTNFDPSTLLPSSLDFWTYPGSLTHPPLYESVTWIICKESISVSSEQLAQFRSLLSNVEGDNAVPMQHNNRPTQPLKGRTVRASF

NS(=O)(=O)c1ccc(/N=c2\scc(-c3ccc(-c4ccccc4)cc3)n2C2CCCCC2)cc1
pKi (Carbonic anhydrase 9): 7.49

NS(=O)(=O)c1ccc(/N=c2\scc(-c3cccs3)n2C2CCCCC2)cc1
pKi (Carbonic anhydrase 9): 6.82

NS(=O)(=O)c1ccc(/N=c2\scc(-c3ccc(F)cc3F)n2C2CCCCC2)cc1
pKi (Carbonic anhydrase 9): 7.07

NS(=O)(=O)c1ccc(/N=c2\scc(-c3ccc(Cl)cc3)n2C2CCCCC2)cc1
pKi (Carbonic anhydrase 9): 6.45

Cc1ccc(-c2cs/c(=N\c3ccc(S(N)(=O)=O)cc3)n2C2CCCCC2)cc1
pKi (Carbonic anhydrase 9): 7.64

COc1ccc(-c2cs/c(=N\c3ccc(S(N)(=O)=O)cc3)n2C2CCCCC2)cc1
pKi (Carbonic anhydrase 9): 7.78

NS(=O)(=O)c1ccc(/N=c2\scc(-c3ccc([N+](=O)[O-])cc3)n2C2CCCCC2)cc1
pKi (Carbonic anhydrase 9): 7.53

NS(=O)(=O)c1ccc(/N=c2\scc(-c3ccc(Br)cc3)n2C2CCCCC2)cc1
pKi (Carbonic anhydrase 1): < 5.00

N#Cc1ccc(-c2cs/c(=N\c3ccc(S(N)(=O)=O)cc3)n2C2CCCCC2)cc1
pKi (Carbonic anhydrase 9): 7.53

NS(=O)(=O)c1ccc(/N=c2\scc(-c3cccc([N+](=O)[O-])c3)n2C2CCCCC2)cc1
pKi (Carbonic anhydrase 9): 6.71

NS(=O)(=O)c1ccc(/N=c2\scc(-c3ccc(Cl)cc3Cl)n2C2CCCCC2)cc1
pKi (Carbonic anhydrase 9): 6.47

NS(=O)(=O)c1ccc(/N=c2\scc(-c3ccc(F)cc3)n2C2CCCCC2)cc1
pKi (Carbonic anhydrase 9): 6.56

NS(=O)(=O)c1ccc(/N=c2\scc(-c3ccccc3)n2C2CCCCC2)cc1
pKi (Carbonic anhydrase 9): 6.45

Reference: ChEMBL document CHEMBL3600366, “New 4-[(3-cyclohexyl-4-aryl-2,3-dihydro-1,3-thiazol-2-ylidene)amino]benzene-1-sulfonamides, synthesis and inhibitory activity toward carbonic anhydrase I, II, IX, XII” (Bioorg Med Chem Lett, 2015)
